In PubChem BioAssay (NCI) one finds TGI and GI50 data, which are given here for eight molecules.

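Cultured in 96-well plates, cells were exposed to test compound for 48 hours across five concentrations. At the GI50, growth is halved. TGI marks complete inhibition of growth.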

Assay in all cases: NCI tumour cell line growth inhibition, 48 h
The test system of assay [1] is TK-10 renal.
Assay [2] concerns CCRF-CEM leukemia.
The subject of assay [3] is BT-549 breast.
Assay [4] has as its system KM12 colon.
For assay [5], the system named is UO-31 renal.
The test system of assay [6] is OVCAR-3 ovarian.
Assay [7] has as its system HCT-15 colon.
Assay [8] concerns IGROV1 ovarian.
The subject of assay [9] is HCT-116 colon.
Assay [10] has as its system HOP-62 NSCLC.

Consider `O=C1CC2OCC=C3CN4CCC56c7ccccc7N1C5C2C3CC46O` (centres undefined), for which the TGI in assay [1], in assay [2], in assay [3], in assay [4], in assay [5] and in assay [6] was above 100 µM throughout. The TGI in [7], in assay [8] and in assay [9] was above 100 µM in each case.

In the case of `Oc1ccc(Br)cc1C=Nc1cccc(C(F)(F)F)c1`, the TGI is above 100 µM in assay [1]; above 100 µM in assay [10]; 28.5 µM in [2]; 98.3 µM in assay [3]; above 100 µM in [4]; above 100 µM in assay [5]. Further, the TGI in [6], in assay [7], in assay [8] and in [9] was above 100 µM throughout.

For `CCOC(=O)CSc1cc(Cl)c(C)cc1S(=O)(=O)/N=C(/N=C/c1ccc([N+](=O)[O-])s1)NNC`, the GI50 in assay [1] was 23 µM; in [10], 13.3 µM; in [2], 30300 nM; in [3], 20500 nM; in assay [4], 18500 nM; in [5], 36.6 µM. Moreover, the GI50 in assay [6] is 10300 nM; in assay [7], 18800 nM; in [8] it was 42700 nM; in assay [9], 13500 nM. The TGI in assay [1] is 67.6 µM; in [10], 31.3 µM; in [2] it was above 100 µM; in [3], 46.3 µM; in assay [4] it was 42.2 µM; in assay [5], above 100 µM. In addition, the TGI is 24.7 µM in [6], 47.8 µM in [7], above 100 µM in assay [8] and 26.3 µM in assay [9].

Take `COc1ccc2nc3cc(Cl)ccc3c(NCCCNCCO)c2c1`: the GI50 is 0.587 µM in assay [1]; 0.393 µM in assay [10]; 476 nM in assay [2]; 1890 nM in [3]; 498 nM in [4]; 0.602 µM in assay [5]. Also, the GI50 is 588 nM in assay [6], 577 nM in assay [7], 577 nM in assay [8] and 326 nM in [9]. Moreover, the TGI in assay [1] came to 3.2 µM; in assay [10] it was 2.14 µM; in assay [2], 2.28 µM; in [3], 3.71 µM; in assay [4] it was 2.81 µM; in assay [5], 3.19 µM. The TGI in [6] was 2.86 µM; in assay [7], 3.15 µM; in assay [8], 3.18 µM; in [9] it was 1.43 µM.

Turning to `C[C@@]1([C@H](OC(=O)c2ccccc2)C(N)=O)CO1`, the GI50 was 19.8 µM in assay [1]; 21.8 µM in assay [10]; 19700 nM in [2]; 20800 nM in assay [3]; 33400 nM in [4]; 20.2 µM in [5]. Further, the GI50 is 16400 nM in [6], 20800 nM in assay [7], 19600 nM in assay [8] and 17500 nM in [9]. For the same molecule, the TGI in assay [1] is 73.7 µM; in assay [10], 64.9 µM; in assay [2] it was above 100 µM; in assay [3], 48.5 µM; in assay [4], above 100 µM; in assay [5], 51.8 µM. The TGI is 35.4 µM in assay [6], 54.9 µM in assay [7], above 100 µM in [8] and 58.6 µM in [9].

Take `COc1cc2c(c(OC)c1OC)-c1ccc(NN(C(=O)c3ccccc3)C(=O)c3ccccc3)c(=O)cc1[C@@H](NC(C)=O)CC2` (tested in a mixture with another compound): the GI50 in [1] is 4.04 µM; in assay [10], 4.54 µM; in assay [2] it was 3570 nM; in [3], 2630 nM; in assay [4], 3630 nM; in assay [5] it was 4.59 µM. For the same molecule, the GI50 was 2800 nM in assay [6], 3640 nM in [7], 4600 nM in [8] and 2950 nM in assay [9]. The TGI in assay [1] is 42.5 µM; in assay [10] it was 30.3 µM; in assay [2], above 100 µM; in assay [3], 8.15 µM; in [4], 25.7 µM; in [5] it was 41.6 µM. For the same molecule, the TGI in assay [6] stood at 13.4 µM; in assay [7], 14.9 µM; in [8], 63 µM; in assay [9] it was 8.88 µM.

On to `O=C1/C(=C/c2ccc(Cl)c(Cl)c2)CN(C(=O)C(Cl)Cl)C/C1=C\c1ccc(Cl)c(Cl)c1`, for which the GI50 in assay [1] was 0.353 µM; in assay [10], 0.271 µM; in assay [2] it was 37.2 nM; in assay [3] it was 228 nM; in assay [4], 160 nM; in [5], 0.133 µM. The GI50 is 57.1 nM in [6], 33 nM in assay [7], 103 nM in assay [8] and 31.5 nM in [9]. Moreover, the TGI was 1.23 µM in assay [1]; 0.972 µM in [10]; above 100 µM in [2]; 0.701 µM in assay [3]; 0.587 µM in assay [4]; 0.267 µM in assay [5]. Besides, the TGI was found to be 0.237 µM in assay [6], 0.802 µM in assay [7], 0.306 µM in assay [8] and 0.12 µM in [9].

`CC(C)=CCc1cc2c(cc1O)C1=C(C(=O)C3=C(C1=O)S(=O)(=O)CCN3)C(C=C(C)C)O2` (centres undefined): the GI50 in [1] was 4.96 µM; in assay [10], 2.33 µM; in assay [2] it was 696 nM; in [3] it was 2310 nM; in assay [4], 2050 nM; in assay [5], 1.82 µM. In addition, the GI50 in [6] was 403 nM; in assay [7], 1770 nM; in [8], 959 nM; in assay [9] it was 474 nM. In addition, the TGI in [1] was 10.4 µM; in assay [10], 4.63 µM; in assay [2], 8.98 µM; in [3] it was 4.78 µM; in [4], 6.99 µM; in assay [5] it was 4.59 µM. The TGI is 1.37 µM in assay [6], 4.3 µM in assay [7], 4.76 µM in [8] and 1.77 µM in [9].
